Reference: US10787432B2, “N-[(pyridyloxy)propanyl]benzamides” (Boehringer Ingelheim International GmbH, priority 2016, dated 2020)
Like-named read-outs stand apart in the source and are kept apart here.

Key:
human Orexin 1 receptor = molecular target: T1, human Orexin 1 receptor (Homo sapiens, UniProt O43613); assay: Assay A: In vitro testing of OX1R potency: OX1R IP1 (HTRF, CHO-K1/hOX1 cells, Orexin A as agonist); type: cell-based
T1 construct: stably expressing the full-length human Orexin 1 receptor; expressed in transfected cells; host or cells: CHO-K1 (CHO-K1/hOX1), co-expressing aequorin
T1 sequence (O43613 1-425): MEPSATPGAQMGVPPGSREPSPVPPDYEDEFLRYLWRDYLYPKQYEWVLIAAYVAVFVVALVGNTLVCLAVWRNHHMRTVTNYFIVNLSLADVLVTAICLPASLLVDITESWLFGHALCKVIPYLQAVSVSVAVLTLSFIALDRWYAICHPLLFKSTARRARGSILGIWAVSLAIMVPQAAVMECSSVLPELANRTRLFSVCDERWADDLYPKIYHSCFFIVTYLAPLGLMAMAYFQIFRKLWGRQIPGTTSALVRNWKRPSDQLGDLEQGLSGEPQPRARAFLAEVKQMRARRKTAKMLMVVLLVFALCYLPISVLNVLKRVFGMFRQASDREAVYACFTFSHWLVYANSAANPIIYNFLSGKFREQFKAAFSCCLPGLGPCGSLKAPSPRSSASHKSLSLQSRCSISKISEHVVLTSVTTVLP

[1] = Assay C: Metabolic stability in human liver microsomes (Human MST); type: in vitro ADME; conditions: pooled human liver microsomes, pH 7.6; human liver microsomes 1 mg/mL, compound 1 μM, 37° C., NADPH; read-out: Human MST t1/2
Method: C. Assessment of Metabolic Stability in Human Liver Microsomes (Human MST)
The metabolic stability of the compounds according to the invention may be investigated as follows:
The metabolic degradation of the test compound is assayed at 37° C. with pooled human liver microsomes. The final incubation volume of 100 μL per time point contains TRIS buffer pH 7.6 at room temperature (0.1 M), MgCl2 (5 mM), microsomal protein (1 mg/mL) and the test compound at a final concentration of 1 μM. Following a short pre-incubation period at 37° C., the reactions are initiated by addition of beta-nicotinamide adenine dinucleotide phosphate, reduced form (NADPH, 1 mM), and terminated by transferring an aliquot into solvent after different time points. After centrifugation (10000 g, 5 min), an aliquot of the supernatant is assayed by LC-MS/MS for the amount of parent compound. The half-life (t1/2) is determined by the slope of the semi-logarithmic plot of the concentration-time profile.

human orexin 2 receptor = molecular target: T2, human orexin 2 receptor (Homo sapiens, UniProt O43614); assay: Assay B: In vitro testing of OX2R potency: OX2R IP1 (HTRF, CHO-K1/hOX2 cells, Orexin A as agonist); type: cell-based
T2 construct: stably expressing the full-length human orexin 2 receptor; expressed in transfected cells; host or cells: CHO-K1 (CHO-K1/hOX2), co-expressing aequorin
T2 sequence (O43614 1-444): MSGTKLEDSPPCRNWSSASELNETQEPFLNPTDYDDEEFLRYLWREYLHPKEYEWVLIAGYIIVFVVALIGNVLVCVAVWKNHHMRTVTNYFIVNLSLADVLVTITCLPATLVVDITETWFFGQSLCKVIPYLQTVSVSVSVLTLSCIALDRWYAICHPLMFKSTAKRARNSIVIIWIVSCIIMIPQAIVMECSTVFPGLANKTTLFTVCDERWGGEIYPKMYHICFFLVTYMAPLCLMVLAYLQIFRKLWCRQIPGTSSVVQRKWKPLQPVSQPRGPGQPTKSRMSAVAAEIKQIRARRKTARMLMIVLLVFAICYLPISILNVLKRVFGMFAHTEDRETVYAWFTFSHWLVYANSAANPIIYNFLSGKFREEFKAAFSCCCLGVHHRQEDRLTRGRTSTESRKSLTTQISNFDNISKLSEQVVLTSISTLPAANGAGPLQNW
Text: Activation of the orexin receptors expressed in cell lines results in an increase in intracellular IP3 concentration. IP1, a downstream metabolite of IP3, accumulates in cells following receptor activation and is stable in the presence of LiCl. Using Homogeneous Time-Resolved Fluorescence technology with Lumi4-Tb cryptate (commercially available from Cisbio Bioassay.) and a suitable fluorescence plate reader. […] Chem. Genomics 2009, 3, 22-32. This technique is used to characterize pharmacological modification of the orexin receptors.
B. In Vitro Testing of OX2R Potency: OX2R IP1
IP1 measurements are performed in CHO-K1 cells stably expressing the full-length human orexin 2 receptor and the aequorin photoprotein. Cells are cultivated in Ham's nutrient mixture F12 medium with 10% fetal calf serum, in a 37° C., 95% humidity and 5% CO2 incubator. The CHO-K1/hOX2 cell mass is expanded to larger cell numbers. The cells are obtained as frozen cells in cryo-vials and stored until use at −150° C. The viability of the cells after thawing is >90%. In preparation for the assay, 24 hours before the assay, the cells are thawed at 37° C. and immediately diluted with cell culture medium. After centrifugation, the cell pellet is resuspended in medium and then distributed into the assay plates with a density of 5000 cells/25 μL per well. The plates are incubated for one hour at room temperature to reduce edge effects before they are incubated for 24 hours at 37° C./5% CO2. Compounds are prepared by a 8-point serial dilution in DMSO and a final dilution step into assay buffer (HBSS with 20 mM HEPES, 0.1% BSA and 50 mM LiCl, pH 7.4) to ensure a final DMSO concentration of 1% in the assay.
On the day of the assay, cells in the plate are washed twice with 60 μL assay buffer (20 μL buffer remained in the wells after washing), followed by adding 5 μL per well of compounds diluted in assay buffer. After 15 minutes of incubation at room temperature 5 μL per well of Orexin A peptide (final concentration: 0.5 nM) dissolved in assay buffer is added to the assay plate. The assay plate is incubated for 60 minutes at 37° C. Then 5 μL per well of Anti-IP1-Cryptate Tb solution and 5 μL per well of IP1-d2 dilution are added to all well of the plate and the plate is incubated for a further 60 minutes light protected at room temperature. The emission at 615 nm and 665 nm (Excitation wavelength: 320 nm) are measured using an EnVision reader (PerkinElmer). The ratio between the emission at 665 nm and 615 is calculated by the reader.
8-point four parametric non-linear curve fitting and determination of IC50 values and Hill slopes is performed using a regular analysis software e.g. AssayExplorer (Accelrys). In order to establish an agonist concentration independent parameter, Kb values are calculated using the following equation: IC50/((2+(A/EC50)n)^1/n−1) (with A=concentration agonist, EC50=EC50 agonist, n=Hill slope agonist) (see P. Leff, I. G. Dougall, Trends Pharmacol. Sci. 1993, 14(4), 110-112).
Kb values from Assay A (OX1R) and Assay B (OX2R) can then provide a selectivity ratio which is independent of the agonist (Orexin A) concentration.

[2] = Orexin A 0.5 nM, read-out: OX1R Kb (Orexin A concentration used)
[3] = Orexin A 50 nM, read-out: OX1R Kb (Orexin A concentration used)

Compound	OX2R Kb/OX1R Kb (human Orexin 1 receptor; OX1R Kb at 0.5 nM Orexin A)	OX2R Kb/OX1R Kb (human Orexin 1 receptor; OX1R Kb at 50 nM Orexin A)	Kb (human Orexin 1 receptor; [2]) [nM]	Kb (human Orexin 1 receptor; [3]) [nM]	half-life at 1 μM [1] [min]	Kb (human orexin 2 receptor; Orexin A 0.5 nM) [nM]	Kb (human Orexin 1 receptor) [nM]	Kb (human orexin 2 receptor) [nM]
CCN(C(=O)c1cc(F)cc(F)c1-n1nccn1)[C@@H](C)COc1ccc(Cl)cn1 [Example 32]	106	143	1.1	0.82	46	117		
CCN(C(=O)c1cccc(F)c1-n1nccn1)[C@@H](C)COc1ccc(Br)cn1 [Example 111]	123	213	0.4	0.23	62	49		
CCN(C(=O)c1cc(OC)ccc1-n1nccn1)[C@@H](C)COc1ccc(C(F)(F)F)cn1 [Example 15]		250		0.06	16	15		
CCN(C(=O)c1ccccc1-n1nccn1)[C@@H](C)COc1ccc(C(F)(F)F)cn1 [Example 10]		117		0.18	24	21		
CCN(C(=O)c1cc(F)c(F)cc1-n1nccn1)[C@@H](C)COc1ncc(C(F)(F)F)cc1F [Example 52]	256		2.1		38	538		
CCN(C(=O)c1cccc(F)c1-n1nccn1)[C@@H](C)COc1ncc(Br)cc1F [Example 112]	168	192	0.57	0.5	67	96		
CCN(C(=O)c1ccc(C)cc1-c1nnc(C)o1)[C@@H](C)COc1ccc(OC(F)(F)F)cn1 [Example 121]	314	293	1.4	1.5	15	440		
CCN(C(=O)c1ccc(C)cc1-c1ncccn1)[C@@H](C)COc1ccc(C(F)(F)F)cn1 [Example 101]	79		0.38		13	30		
CCN(C(=O)c1cccc(F)c1-n1nccn1)[C@@H](C)COc1ccc(C(F)(F)F)cn1 [Example 109]		327		0.11	75	36		
CCN(C(=O)c1ccccc1-c1cnn(C)c1)[C@@H](C)COc1ncc(C(F)(F)F)cc1F [Example 132]	89		1.7		11	152		
CCN(C(=O)c1cccc(F)c1-c1nnc(C)o1)[C@@H](C)COc1ccc(C(F)(F)F)cn1 [Example 18]	273		0.8		74	218		
CCN(C(=O)c1cccc(F)c1-n1nccn1)[C@@H](C)COc1ccc(F)c(C(F)(F)F)n1 [Example 133]	63				21		1.6	101
